For this assay, the system named is B. Pseudomonas aeruginosa. Briefly: Induced peritoneal sepsis, survival. The conditions noted are these: for Survival (animals alive): bacteria + Gentamycin 1.0 mg/ml i.p. It is filed as in vivo. The method, then: Mice (C3H) were induced with B. Pseudomonas aeruginosa to have peritoneal sepsis, with resultant infection injury to the lung. Fox-Dewhurst, R., et al., Am. J Respir. Crit. Care Med., 155:2030-2040 (1997). Groups of animals (n=4 per group) were treated with doses of bacteria (108-1010 cfu/ml) in the peritoneum. Injection bacteria was prepared in saline at 10×10^7 cfu/ml. 0.3 ml of bacterial solution was injected into the peritoneal cavity. After three minutes, 0.3 ml of saline or 0.5 ml of electrolyzed saline solution was injected intraperitoneally. A group of animals was treated with Gentamycin as a positive control to compare the effectiveness of 25%, 50%, and 100% electrolyzed saline solutions. This group of animals was treated at the time of bacterial inoculation with Gentamycin at a concentration of 1.0 mg/ml intraperitoneally.
Six study groups of mice were studied: saline control, Gentamycin positive control, bacteria plus 25% electrolyzed saline solution, bacteria plus 50% electrolyzed saline solution, bacteria plus 100% electrolyzed saline solution, and bacteria plus saline.

Consider 1 substance from patent publication US20060039996A1, “Method for treating sepsis” (priority 2004, published 2006).

Take Gentamycin: the “Survival (animals alive)” value runs as follows: (24 hrs, n=4) 4; (48 hrs, n=4) 4; (72 hrs, n=4) 2. Where the note is “48 hours, Gentamicin 1.0 mg/ml i.p.”, the “clinical appearance of animals” value is listed as “still normal with no sign of sickness”. Where the note is “72 hours, Gentamicin 1.0 mg/ml i.p.”, this substance gave a survival rate of 50%. Under “72 hours, Gentamicin 1.0 mg/ml i.p., n=4”, this substance displayed an animals died of 2.
